Measurements as given in article PMC7421780 (Future Medicinal Chemistry, 2020).
Where two headings read alike, the source gives them in different places.

What was measured:
CYP2C8 = biological target: T1, CYP2C8 (Homo sapiens, UniProt P10632); test: biochemical
T1 sequence (P10632 1-490): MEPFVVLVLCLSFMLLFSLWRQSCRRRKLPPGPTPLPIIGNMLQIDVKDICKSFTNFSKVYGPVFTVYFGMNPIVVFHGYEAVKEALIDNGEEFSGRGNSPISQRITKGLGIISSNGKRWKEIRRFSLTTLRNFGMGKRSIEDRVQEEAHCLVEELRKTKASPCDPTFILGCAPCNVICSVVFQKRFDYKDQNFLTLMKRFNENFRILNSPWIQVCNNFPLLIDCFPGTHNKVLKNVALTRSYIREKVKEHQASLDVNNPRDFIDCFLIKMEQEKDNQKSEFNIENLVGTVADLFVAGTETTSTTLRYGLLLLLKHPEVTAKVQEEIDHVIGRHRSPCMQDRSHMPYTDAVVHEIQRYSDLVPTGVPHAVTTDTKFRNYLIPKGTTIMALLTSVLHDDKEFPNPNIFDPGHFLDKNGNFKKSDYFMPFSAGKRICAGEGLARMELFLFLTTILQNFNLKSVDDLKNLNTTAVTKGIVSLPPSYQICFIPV

in vitro [1] = settings: human
[2] = Human plasma, equilibrium dialysis
Mtb H37Rv [3] = test: Minimal bactericidal concentration; type: cell-based, Mycobacterium tuberculosis; settings: Mtb H37Rv aerobic
intracellular Mtb H37Rv = test: microbe, parasite or virus in culture; type: cell-based; settings: Mycobacterium tuberculosis
Mycobacterium abscessus = test: MIC, IC50, IC90 against nontuberculous mycobacteria; type: cell-based
Mtb H37Rv [4] = test: Secondary assay: MIC, IC50 and IC90 repeated at lower starting concentrations; type: cell-based; settings: Mycobacterium tuberculosis
[5] = Caco-2 cell monolayer permeability assay; settings: human, Caco-2
CYP2C19 = CYP2C19 (Homo sapiens, UniProt P33261); test: biochemical
CYP3A4 = CYP3A4 (Homo sapiens, UniProt P08684); test: Cytochrome P450 inhibition; type: in vitro ADME
Mycobacterium avium = test: MIC against nontuberculous mycobacteria, Alamar blue; type: cell-based
CYP2B6 = biological target: T2, CYP2B6 (Homo sapiens, UniProt P20813); test: biochemical
T2 sequence (P20813 1-491): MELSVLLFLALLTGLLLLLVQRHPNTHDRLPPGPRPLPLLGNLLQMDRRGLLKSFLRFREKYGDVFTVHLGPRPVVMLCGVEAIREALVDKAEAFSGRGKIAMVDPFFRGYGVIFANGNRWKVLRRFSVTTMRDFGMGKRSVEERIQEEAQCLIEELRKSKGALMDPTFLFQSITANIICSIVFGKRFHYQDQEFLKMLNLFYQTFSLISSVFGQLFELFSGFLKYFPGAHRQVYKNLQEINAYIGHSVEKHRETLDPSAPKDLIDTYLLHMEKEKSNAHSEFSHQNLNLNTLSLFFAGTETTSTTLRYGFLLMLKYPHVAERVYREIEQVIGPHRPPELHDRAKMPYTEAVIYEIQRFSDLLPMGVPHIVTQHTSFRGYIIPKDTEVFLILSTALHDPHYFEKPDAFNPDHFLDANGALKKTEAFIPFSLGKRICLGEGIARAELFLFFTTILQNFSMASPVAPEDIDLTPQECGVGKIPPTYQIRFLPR

HepG2 cytotoxicity = type: cell-based; settings: human, HepG2 cells
CYP2D6 = CYP2D6 (Homo sapiens, UniProt P10635); test: biochemical
Mtb H37Rv [6] = test: Primary screen: MIC, IC50 and IC90 under aerobic conditions; type: cell-based; settings: Mycobacterium tuberculosis
[7] = In vitro microsomal stability assay; settings: human, microsomes
CYP2C9 = CYP2C9 (Homo sapiens, UniProt P11712); test: Cytochrome P450 inhibition; type: in vitro ADME
in vitro [8] = settings: human; remark: listed apart in the source
NRP Mtb H37Rv = test: microbe, parasite or virus in culture; type: cell-based; settings: Mycobacterium tuberculosis

CYP3A4, sequence (P08684 whole entry): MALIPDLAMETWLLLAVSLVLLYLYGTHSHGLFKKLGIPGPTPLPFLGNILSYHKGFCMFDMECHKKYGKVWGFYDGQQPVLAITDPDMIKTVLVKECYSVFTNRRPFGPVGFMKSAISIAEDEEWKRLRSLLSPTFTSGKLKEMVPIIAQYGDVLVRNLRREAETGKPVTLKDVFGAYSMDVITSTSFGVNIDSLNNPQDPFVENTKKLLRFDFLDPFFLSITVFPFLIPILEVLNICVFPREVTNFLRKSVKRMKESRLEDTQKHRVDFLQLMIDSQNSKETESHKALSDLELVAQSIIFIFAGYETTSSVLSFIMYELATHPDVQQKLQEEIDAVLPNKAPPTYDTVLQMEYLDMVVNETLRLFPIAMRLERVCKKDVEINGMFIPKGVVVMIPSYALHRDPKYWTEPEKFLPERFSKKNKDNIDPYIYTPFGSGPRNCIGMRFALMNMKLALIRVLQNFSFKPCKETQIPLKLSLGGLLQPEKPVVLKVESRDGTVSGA
CYP2D6, sequence (P10635 whole entry): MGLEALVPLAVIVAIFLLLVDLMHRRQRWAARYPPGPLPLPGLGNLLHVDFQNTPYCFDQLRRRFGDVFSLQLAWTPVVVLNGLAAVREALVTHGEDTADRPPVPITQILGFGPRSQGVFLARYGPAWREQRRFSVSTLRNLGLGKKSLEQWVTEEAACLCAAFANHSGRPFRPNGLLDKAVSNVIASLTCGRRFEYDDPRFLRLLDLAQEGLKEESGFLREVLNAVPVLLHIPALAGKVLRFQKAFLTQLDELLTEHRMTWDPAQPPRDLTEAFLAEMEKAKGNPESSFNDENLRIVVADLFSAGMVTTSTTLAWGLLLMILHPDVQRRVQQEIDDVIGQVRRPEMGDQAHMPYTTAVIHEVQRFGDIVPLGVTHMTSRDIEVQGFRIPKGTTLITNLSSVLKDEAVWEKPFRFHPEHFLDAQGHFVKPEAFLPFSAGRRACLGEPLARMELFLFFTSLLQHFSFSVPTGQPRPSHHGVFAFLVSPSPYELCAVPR
CYP2C19, sequence (P33261 whole entry): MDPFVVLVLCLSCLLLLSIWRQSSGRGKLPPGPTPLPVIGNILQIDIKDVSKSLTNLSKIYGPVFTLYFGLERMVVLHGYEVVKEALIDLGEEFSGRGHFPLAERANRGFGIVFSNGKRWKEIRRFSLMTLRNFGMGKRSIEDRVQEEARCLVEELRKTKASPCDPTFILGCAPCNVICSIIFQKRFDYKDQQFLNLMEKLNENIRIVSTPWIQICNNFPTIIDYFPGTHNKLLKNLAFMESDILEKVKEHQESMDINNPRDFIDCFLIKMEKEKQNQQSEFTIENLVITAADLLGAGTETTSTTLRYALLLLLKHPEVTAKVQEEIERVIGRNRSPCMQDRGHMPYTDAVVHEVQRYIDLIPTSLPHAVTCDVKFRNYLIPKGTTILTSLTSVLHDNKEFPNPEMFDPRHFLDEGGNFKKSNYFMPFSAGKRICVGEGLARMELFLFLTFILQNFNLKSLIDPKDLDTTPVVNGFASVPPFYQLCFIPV
CYP2C9, sequence (P11712 whole entry): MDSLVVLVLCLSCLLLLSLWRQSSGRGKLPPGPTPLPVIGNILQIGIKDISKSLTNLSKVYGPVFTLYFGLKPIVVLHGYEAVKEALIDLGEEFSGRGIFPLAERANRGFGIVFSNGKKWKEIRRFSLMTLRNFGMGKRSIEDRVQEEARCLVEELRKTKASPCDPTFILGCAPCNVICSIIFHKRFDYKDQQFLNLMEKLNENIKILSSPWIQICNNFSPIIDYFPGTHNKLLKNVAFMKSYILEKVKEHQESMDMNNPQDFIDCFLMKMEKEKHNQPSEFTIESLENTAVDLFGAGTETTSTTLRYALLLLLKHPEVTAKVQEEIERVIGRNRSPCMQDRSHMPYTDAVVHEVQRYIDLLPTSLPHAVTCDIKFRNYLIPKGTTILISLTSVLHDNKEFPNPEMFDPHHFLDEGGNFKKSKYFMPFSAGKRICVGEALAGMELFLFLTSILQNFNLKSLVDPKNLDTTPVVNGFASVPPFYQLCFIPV

With `O=C(C[n+]1cn(Cc2cccc(Cn3c[n+](CC(=O)c4ccc([N+](=O)[O-])cc4)c4ccccc43)n2)c2ccccc21)c1ccc([N+](=O)[O-])cc1.[Br-].[Br-]` [Compound 6f, 1,1′-(pyridine-2,6-diylbis(methylene))bis(3-(2-(4-nitrophenyl)-2-oxoethyl)-1H-benzo[d]imidazol-3-ium) bromide] as the compound, how does the IC50 (CYP2C8) read?
Its IC50 is greater than 20 µM.

What about the IC50 (in vitro [1]) of the same compound?
Its IC50 is greater than 50 µM.

And the “Mean plasma fraction unbound” value [2]?
Its value is 7.8%.

What about the “mechanism of action (bacteriostatic or bactericidal)” value (Mtb H37Rv [3]) of the same compound?
The value was “bactericidal”.

And the IC50 (intracellular Mtb H37Rv; THP-1, read-out: IC50 intracell)?
The IC50 was 14 µM.

What about the IC90 (intracellular Mtb H37Rv; THP-1, read-out: IC90 intracell) of the same compound?
The IC90 was 26 µM.

What about the “activity against M. abscessus (in words)” value (Mycobacterium abscessus) of the same compound?
Its value is “showed activity”.

And the IC50 (Mycobacterium abscessus; Mycobacteroides abscessus)?
The IC50 was 56 µM.

What about the IC90 (Mycobacterium abscessus; Mycobacteroides abscessus) of the same compound?
Its IC90 is 68 µM.

What about the MIC (Mycobacterium abscessus; Mycobacteroides abscessus) of the same compound?
The MIC was 88 µM.

And the IC50 (Mtb H37Rv [4])?
The IC50 was 11 µM.

And the IC90 (Mtb H37Rv [4])?
Its IC90 is 20 µM.

What about the MIC (Mtb H37Rv [4]; read-out: MIC aerobic condition) of the same compound?
Its MIC is 16 µM.

What about the Papp B→A [5] of the same compound?
The Papp B→A was 0.095 ×10⁻⁶ cm/s.

And the efflux ratio [5]?
Its efflux ratio is 0.2.

What about the IC50 (CYP2C19) of the same compound?
Its IC50 is 8.8 µM.

And the IC50 (CYP3A4)?
Its IC50 is 6.6 µM.

What about the IC50 (CYP3A4; IC50 CYP3A4 – midazolam, probe substrate midazolam, human liver microsomes) of the same compound?
Its IC50 is greater than 20 µM.

What about the “activity against M. avium (in words)” value (Mycobacterium avium) of the same compound?
The value was “moderate activity”.

What about the MIC (Mycobacterium avium; Mycobacterium avium) of the same compound?
Its MIC is 200 µM.

And the IC50 (CYP2B6)?
Its IC50 is greater than 20 µM.

And the IC50 at 72 h (HepG2 cytotoxicity)?
The IC50 at 72 h was greater than 100 µM.

And the IC50 (CYP2D6)?
Its IC50 is 920 nM.

What about the IC50 (Mtb H37Rv [6]) of the same compound?
Its IC50 is 14 µM.

And the IC90 (Mtb H37Rv [6])?
Its IC90 is 21 µM.

What about the MIC (Mtb H37Rv [6]) of the same compound?
Its MIC is 24 µM.

What about the half-life at 1 μM ([7]; NADPH-dependent T1/2, Human) of the same compound?
The half-life at 1 μM was 106 min.

And the microsomal CLint at 1 μM ([7]; NADPH-free CLint)?
The microsomal CLint at 1 μM was less than 12.8 µL/min/mg.

And the half-life at 1 μM ([7]; NADPH-free T1/2, Human)?
The half-life at 1 μM was greater than 180 min.

And the IC50 (CYP2C9)?
The IC50 was greater than 20 µM.

And the recovery (in vitro [8])?
The recovery was 24.5%.

What about the fraction unbound (in vitro [8]; plasma) of the same compound?
Its fraction unbound is 0.078.

What about the IC50 (NRP Mtb H37Rv; Low oxygen) of the same compound?
The IC50 was 9.7 µM.

And the IC90 (NRP Mtb H37Rv; Low oxygen)?
The IC90 was 33 µM.

What about the MIC (NRP Mtb H37Rv; Low oxygen) of the same compound?
The MIC was 120 µM.

And the IC50 (NRP Mtb H37Rv; Normal oxygen)?
Its IC50 is 9.9 µM.

And the IC90 (NRP Mtb H37Rv; Normal oxygen)?
The IC90 was 25 µM.

What about the MIC (NRP Mtb H37Rv; Normal oxygen) of the same compound?
Its MIC is 71 µM.
